The target in this assay is Thrombin (≥1000 NIH U mg^−1 protein) prepared from human plasma (Homo sapiens, UniProt P00734). The assay can be described thus: chromogenic thrombin activation assay, […] nm. In kind it is biochemical.

The values that follow come from publication PMC9078235 (RSC Advances, 2018).

Structures are written as SMILES.

Usually EC50 stands for the concentration needed to bring the measured effect to its halfway point. A low value points to higher potency in that assay. `O=S(=O)(O)c1cc(O)ccc1O` [etamsylate, reference compound] showed an EC50 of 127 µM. `CC(=O)Oc1ccc(/C=C/C(=O)Nc2nc3ccccc3s2)cc1` [Q2, (E)-4-(3-(Benzo[d]thiazol-2-ylamino)-3-oxoprop-1-en-1-yl)phenyl acetate] displayed an EC50 of 136 µM. The figure for `COc1cc(/C=C/C(=O)Nc2nc3ccccc3s2)cc(OC)c1OC` [Q8, (E)-N-(Benzo[d]thiazol-2-yl)-3-(3,4,5-trimethoxyphenyl)acrylamide] is 232 µM.
